Assay results from the NIST ThermoML archive (doi:10.1021/je060368x).
± gives the expanded uncertainty stated by the source.

Columns and labels:
[1] = heat capacity at constant pressure per volume; xn = mol fraction of the nth substance listed; conditions: 298.15 K, 101 kPa, Liquid
[2] = xn = mol fraction of the nth substance listed; conditions: 298.15 K, 101 kPa, Liquid
[3] = excess molar enthalpy (molar enthalpy of mixing); xn = mol fraction of the nth substance listed; conditions: 298.15 K, 101 kPa, Liquid, Flow calorimetry
[4] = heat capacity at constant pressure per volume; conditions: 298.15 K; 101.33 kPa; Liquid

C1CCOCC1 [tetrahydropyran] + CCCO
Conditions | heat capacity, [1] [J/K/m3] | mass density, [2] [kg/m3]
x1 = 0.0996 | 1875000 ± 8000 | 809.78 ± 0.6
x1 = 0.1994 | 1838000 ± 7000 | 819.29 ± 0.59
x1 = 0.2873 | 1807000 ± 7000 | 827.18 ± 0.58
x1 = 0.3993 | 1766000 ± 7000 | 836.57 ± 0.58
x1 = 0.4981 | 1728000 ± 7000 | 844.4 ± 0.58
x1 = 0.6011 | 1687000 ± 7000 | 852.07 ± 0.58
x1 = 0.7007 | 1646000 ± 7000 | 859.15 ± 0.58
x1 = 0.7981 | 1604000 ± 6000 | 865.77 ± 0.59
x1 = 0.9007 | 1560000 ± 6000 | 872.46 ± 0.59

C1CCOCC1 [tetrahydropyran] + CCCCCO
Conditions | excess molar enthalpy, [3] [kcal/mol] | heat capacity, [1] [J/K/m3] | mass density, [2] [kg/m3]
x1 = 0.0486 | – | 1898000 ± 8000 | 813.55 ± 0.71
x1 = 0.0968 | – | 1881000 ± 8000 | 816.55 ± 0.7
x1 = 0.11 | 0.0784 ± 0.00127 | – | –
x1 = 0.2002 | – | 1846000 ± 7000 | 823.07 ± 0.69
x1 = 0.217 | 0.144 ± 0.00217 | – | –
x1 = 0.2987 | – | 1811000 ± 7000 | 829.33 ± 0.68
x1 = 0.323 | 0.19 ± 0.00263 | – | –
x1 = 0.3966 | – | 1776000 ± 7000 | 835.71 ± 0.67
x1 = 0.426 | 0.219 ± 0.00287 | – | –
x1 = 0.4994 | – | 1738000 ± 7000 | 842.54 ± 0.66
x1 = 0.526 | 0.232 ± 0.00287 | – | –
x1 = 0.5993 | – | 1698000 ± 7000 | 849.33 ± 0.65
x1 = 0.625 | 0.228 ± 0.00311 | – | –
x1 = 0.6972 | – | 1657000 ± 7000 | 856.2 ± 0.64
x1 = 0.722 | 0.206 ± 0.00359 | – | –
x1 = 0.8 | – | 1610000 ± 6000 | 863.59 ± 0.63
x1 = 0.816 | 0.165 ± 0.00526 | – | –
x1 = 0.8983 | – | 1564000 ± 6000 | 870.89 ± 0.62
x1 = 0.909 | 0.0978 ± 0.00669 | – | –
x1 = 0.9495 | – | 1540000 ± 6000 | 874.85 ± 0.61

CCCCCCCO [heptan-1-ol] + C1CCCCC1
[3]
Conditions | excess molar enthalpy [kcal/mol]
x2 = 0.127 | 0.0456 ± 0.000813
x2 = 0.246 | 0.0867 ± 0.00141
x2 = 0.359 | 0.119 ± 0.00179
x2 = 0.466 | 0.142
x2 = 0.567 | 0.154 ± 0.00203
x2 = 0.662 | 0.155 ± 0.00203
x2 = 0.753 | 0.145 ± 0.00225
x2 = 0.839 | 0.126 ± 0.00287
x2 = 0.922 | 0.0956 ± 0.00359

C1CCOCC1 [tetrahydropyran] + CCCCCCO
Conditions | heat capacity, [1] [J/K/m3] | mass density, [2] [kg/m3]
x1 = 0.0523 | 1899000 ± 8000 | 817.49 ± 0.7
x1 = 0.1033 | 1883000 ± 8000 | 820.05 ± 0.7
x1 = 0.2029 | 1851000 ± 7000 | 825.28 ± 0.69
x1 = 0.3021 | 1818000 ± 7000 | 830.74 ± 0.68
x1 = 0.4033 | 1782000 ± 7000 | 836.58 ± 0.67
x1 = 0.5007 | 1745000 ± 7000 | 842.45 ± 0.66
x1 = 0.6013 | 1705000 ± 7000 | 848.93 ± 0.65
x1 = 0.7015 | 1662000 ± 7000 | 855.69 ± 0.64
x1 = 0.799 | 1616000 ± 6000 | 862.7 ± 0.63
x1 = 0.8994 | 1567000 ± 6000 | 870.44 ± 0.62
x1 = 0.9482 | 1543000 ± 6000 | 874.45 ± 0.61

CCCCCCCCCCO [decan-1-ol] + C1CCOCC1
Conditions | excess molar enthalpy [kcal/mol] | mass density [kg/m3]
[2], x2 = 0.1017 | – | 828.6 ± 0.68
[2], x2 = 0.2006 | – | 831.38 ± 0.68
[2], x2 = 0.2971 | – | 834.48 ± 0.67
[2], x2 = 0.3995 | – | 838.2 ± 0.67
[2], x2 = 0.4943 | – | 842.21 ± 0.66
[2], x2 = 0.5984 | – | 847.35 ± 0.65
[2], x2 = 0.6979 | – | 853.12 ± 0.64
[2], x2 = 0.8001 | – | 860.13 ± 0.63
[2], x2 = 0.9009 | – | 868.56 ± 0.62
[3], x2 = 0.179 | 0.14 ± 0.0021 | –
[3], x2 = 0.329 | 0.229 ± 0.00335 | –
[3], x2 = 0.456 | 0.27 ± 0.00359 | –
[3], x2 = 0.566 | 0.282 ± 0.00359 | –
[3], x2 = 0.662 | 0.271 ± 0.00359 | –
[3], x2 = 0.746 | 0.243 ± 0.00454 | –
[3], x2 = 0.82 | 0.198 ± 0.00645 | –
[3], x2 = 0.887 | 0.142 ± 0.00884 | –
[3], x2 = 0.946 | 0.075 ± 0.0108 | –

CCCCCO [pentan-1-ol] + C1CCCCC1
[3]
Conditions | excess molar enthalpy [kcal/mol]
x2 = 0.1 | 0.0357 ± 0.000645
x2 = 0.2 | 0.0692 ± 0.00115
x2 = 0.3 | 0.0977 ± 0.00155
x2 = 0.4 | 0.125 ± 0.00186
x2 = 0.5 | 0.143 ± 0.00198
x2 = 0.6 | 0.152 ± 0.00198
x2 = 0.7 | 0.149 ± 0.00206
x2 = 0.8 | 0.133 ± 0.00263
x2 = 0.9 | 0.102 ± 0.00311

CCCCCCCCCO [nonan-1-ol] + C1CCCCC1
[3]
Conditions | excess molar enthalpy [kcal/mol]
x2 = 0.152 | 0.0608 ± 0.001
x2 = 0.287 | 0.107 ± 0.00165
x2 = 0.409 | 0.138 ± 0.00198
x2 = 0.518 | 0.156 ± 0.0021
x2 = 0.617 | 0.161 ± 0.00208
x2 = 0.707 | 0.157 ± 0.00215
x2 = 0.79 | 0.143 ± 0.00263
x2 = 0.866 | 0.12 ± 0.00359
x2 = 0.936 | 0.089 ± 0.0043

CCCCCCCCCO [nonan-1-ol] + C1CCOCC1
Conditions | excess molar enthalpy [kcal/mol] | mass density [kg/m3]
[2], x2 = 0.0965 | – | 826.81 ± 1.1
[2], x2 = 0.1998 | – | 830.22 ± 1.1
[2], x2 = 0.2989 | – | 833.75 ± 1
[2], x2 = 0.3822 | – | 837.11 ± 0.96
[2], x2 = 0.497 | – | 842.35 ± 0.89
[2], x2 = 0.5969 | – | 847.63 ± 0.83
[2], x2 = 0.6983 | – | 853.74 ± 0.77
[2], x2 = 0.8 | – | 860.8 ± 0.72
[2], x2 = 0.9002 | – | 869.06 ± 0.66
[3], x2 = 0.166 | 0.13 ± 0.00194 | –
[3], x2 = 0.309 | 0.211 ± 0.00311 | –
[3], x2 = 0.434 | 0.254 ± 0.00335 | –
[3], x2 = 0.544 | 0.27 ± 0.00335 | –
[3], x2 = 0.641 | 0.263 ± 0.00359 | –
[3], x2 = 0.729 | 0.238 ± 0.00406 | –
[3], x2 = 0.807 | 0.197 ± 0.00574 | –
[3], x2 = 0.877 | 0.143 ± 0.00813 | –
[3], x2 = 0.942 | 0.0767 ± 0.00956 | –

CCCCCCCO [heptan-1-ol] + C1CCOCC1
[2]
Conditions | mass density [kg/m3]
x2 = 0.0514 | 820.57 ± 1.2
x2 = 0.1047 | 822.8 ± 1.1
x2 = 0.1988 | 826.97 ± 1.1
x2 = 0.2987 | 831.67 ± 1
x2 = 0.4018 | 836.94 ± 0.95
x2 = 0.4976 | 842.18 ± 0.89
x2 = 0.6005 | 848.37 ± 0.83
x2 = 0.6985 | 854.74 ± 0.77
x2 = 0.8002 | 861.99 ± 0.71
x2 = 0.8989 | 869.83 ± 0.66
x2 = 0.9487 | 874.13 ± 0.63

C1CCOCC1 [tetrahydropyran] + CCCCO
Conditions | heat capacity, [1] [J/K/m3] | mass density, [2] [kg/m3]
x1 = 0.0511 | 1899000 ± 8000 | 809.59 ± 0.56
x1 = 0.0976 | 1882000 ± 8000 | 813.23 ± 0.55
x1 = 0.1996 | 1847000 ± 7000 | 821.04 ± 0.55
x1 = 0.301 | 1811000 ± 7000 | 828.64 ± 0.54
x1 = 0.3987 | 1778000 ± 7000 | 835.87 ± 0.54
x1 = 0.499 | 1739000 ± 7000 | 843.12 ± 0.54
x1 = 0.598 | 1699000 ± 7000 | 850.26 ± 0.55
x1 = 0.6994 | 1655000 ± 7000 | 857.46 ± 0.56
x1 = 0.7998 | 1610000 ± 6000 | 864.53 ± 0.57
x1 = 0.8998 | 1563000 ± 6000 | 871.67 ± 0.58
x1 = 0.9501 | 1541000 ± 6000 | 875.22 ± 0.59

CCCCCCCCCCO [decan-1-ol] + C1CCCCC1
[3]
Conditions | excess molar enthalpy [kcal/mol]
x2 = 0.164 | 0.0694 ± 0.0011
x2 = 0.306 | 0.118 ± 0.00179
x2 = 0.431 | 0.148 ± 0.00208
x2 = 0.541 | 0.163 ± 0.00215
x2 = 0.638 | 0.166 ± 0.00215
x2 = 0.726 | 0.159 ± 0.00225
x2 = 0.805 | 0.144 ± 0.00263
x2 = 0.876 | 0.122 ± 0.00382
x2 = 0.941 | 0.0902 ± 0.00478

C1CCOCC1 [tetrahydropyran]
Conditions | heat capacity [J/K/m3]
[4] | 1519000 ± 6000

C1CCOCC1 [tetrahydropyran] + CCCCCCCCO
[2]
Conditions | mass density [kg/m3]
x1 = 0.0533 | 823.35 ± 0.69
x1 = 0.0961 | 824.78 ± 0.69
x1 = 0.198 | 828.58 ± 0.68
x1 = 0.2967 | 832.64 ± 0.68
x1 = 0.4014 | 837.39 ± 0.67
x1 = 0.5 | 842.3 ± 0.66
x1 = 0.599 | 847.86 ± 0.65
x1 = 0.7005 | 854.23 ± 0.64
x1 = 0.7999 | 861.27 ± 0.63
x1 = 0.8989 | 869.3 ± 0.62
x1 = 0.9504 | 873.97 ± 0.61

C1CCOCC1 [tetrahydropyran] + CCCCCCCCCC
[3]
Conditions | excess molar enthalpy [kcal/mol]
x1 = 0.182 | 0.0908 ± 0.00136
x1 = 0.333 | 0.143 ± 0.00206
x1 = 0.461 | 0.165 ± 0.0022
x1 = 0.571 | 0.17 ± 0.00217
x1 = 0.666 | 0.16 ± 0.00232
x1 = 0.75 | 0.141 ± 0.00287
x1 = 0.823 | 0.115 ± 0.00382
x1 = 0.889 | 0.0821 ± 0.00526
x1 = 0.947 | 0.0428 ± 0.00645
